Experimental data taken from patent US9260468B1, “2,3′-anhydro-2′-deoxy-5-fluorouridine derivatives with cytotoxic activity, a manufacturing process and application” (ADAM MICKIEWICZ UNIVERSITY, priority 2014, dated 2016).
“And” between values parts separate entries of the source, which are not always exact repeats. Equal entries are not always repeated. Where two headings read alike, the source gives them in different places.

How the values were obtained:
MCF-7 (breast cancer) = assay: Cytotoxicity test with sulphorhodamine B, MCF-7 line; assay type: cell-based; details: for SI, MCF-7: SI = IC50 normal cell line (fibroblasts) / IC50 MCF-7
Protocol: (§1) Cytotoxic activity tests were performed using the following cancer cell lines: MCF-7 (breast cancer), HeLa (cervical cancer) A549 (lung cancer) and KB (nasopharynx cancer) and normal cells (human dermal fibroblasts, HDF) obtained from ECACC (European Collection of Cell Cultures).
(§2) Cytotoxicity tests were carried out using a standard procedure with sulphorhodamine B. They involved incubation of the cancer cell lines in the logarithmic growth phase for 72 hours with the compound tested and, subsequently, spectrophotometric determination of the degree of cell growth inhibition using adsorption of a dye (sulphorhodamine B) which binds cellular proteins. The determination was carried out according to a procedure reported in: Vichai, V., Kirtikara, K. Nature Protocols, 2006, 1, 1112.
(§3) Cells of the cell line tested in the logarithmic growth phase were seeded onto 24-well plates in a quantity of 20.000 cells/2 mL of the growth medium per well and, subsequently, incubated in an incubator at 37° C., in the 5% CO2 atmosphere for 24 hours.
(§4) Solutions of the test compounds were prepared in DMSO in the following concentrations: 0.05; 0.1; 0.5; 1; 5; 10; 50; 100; 500 μM.
(§5) The cells of the lines tested were treated with the solutions of the test compounds in a laminar-flow chamber which ensured sterile working conditions according to the following procedure: the first three wells were used as a control: they contained 20 μL of DMSO only; successive solutions of the test compound were added to subsequent wells (20 μL), starting with the lowest concentration (three wells for each concentration level). Subsequently, the plates were placed in an incubator at 37° C. for 72 hours. After the end of incubation, the adhered cells were fixed by adding 500 μL of cold (4° C.) 50% trichloroacetic acid (TCA) and incubated at 4° C. for 1 hour. Subsequently, each well was rinsed with sterile water and dried. The rinsing was repeated five times. The fixed cells were stained for 30 minutes by adding 500 μL of 0.4% dye solution (sulphorhodamine B) dissolved in 1% acetic acid. Any unbound dye was removed by decanting it from the plate, and the cells were washed 4 times with 1% acetic acid. Subsequently, the plates were dried in air for approx. 5 minutes. Bounded dye was dissolved by adding 1500 μL of 10 mM Tris-base buffer (trishydroxymethylaminomethane) to each well and shaken using an orbital shaker for 5 minutes. Subsequently, 200 μL of solution from each well was transferred to each of two wells on a new 96-well plate and absorption of the solutions was determined spectrophotometrically at a wavelength of 490-530 nm using a plate reader.
(§6) Cytotoxicity tests for the other compounds and cell lines were performed following an identical procedure.
(§7) The MCF-7 line was grown in Dulbecco's Modified Eagle's Medium (DME) from Sigma (cat. no. D5796), while the HeLa, A549 and KB lines were grown in RPMI-1640 Medium from Sigma (cat. no. R8758).
(§8) IC50 values, being concentration of a compound needed to obtain 50% inhibition of cell growth, were determined for all the derivatives tested.

Huh-7 line = details: literature (Srivastav et al. 2010); cited from earlier work
HeLa (cervical cancer) = assay: Cytotoxicity test with sulphorhodamine B, HeLa line; assay type: cell-based; details: for SI, HeLa: SI = IC50 normal cell line (fibroblasts) / IC50 HeLa
Protocol: as §1, §2, §3, §4, §5, §6, §7, §8

KB (nasopharynx cancer) = assay: Cytotoxicity test with sulphorhodamine B, KB line; assay type: cell-based; details: for SI, KB: SI = IC50 normal cell line (fibroblasts) / IC50 KB
Protocol: as §1, §2, §3, §4, §5, §6, §7, §8

HBV = details: literature (Srivastav et al. 2010); cited from earlier work
A549 (lung cancer) = assay: Cytotoxicity test with sulphorhodamine B, A549 line; assay type: cell-based; details: for IC50: Homo sapiens
Protocol: as §1, §2, §3, §4, §5, §6, §7, §8

[1] = Cytotoxicity test with sulphorhodamine B, normal fibroblasts; assay type: cell-based; details: human, normal human dermal fibroblasts (HDF), normal cells, 72 hours incubation, read-out: Cytotoxic activity, IC50, Fibroblasts (HDF)
Protocol: as §1, §2, §3
Solutions of the test compounds were prepared in DMSO in the following concentrations: 0.05; 0.1; 0.5; 1; 5; 10; 50; 100; 500 μM. […]

[2] = 72 hours incubation, sulphorhodamine B, average of three determinations
[3] = class A/MA/NA by IC50 in μg/mL, read-out: Cytotoxic activity class, KB (nasopharynx cancer)
[4] = Homo sapiens, MCF7, class A/MA/NA by IC50 in μg/mL, read-out: Cytotoxic activity class, MCF-7 (breast cancer)
[5] = A549, class A/MA/NA by IC50 in μg/mL, read-out: Cytotoxic activity class, A549 (lung cancer)
[6] = Homo sapiens, HeLa, class A/MA/NA by IC50 in μg/mL, read-out: Cytotoxic activity class, HeLa (cervical cancer)
[7] = Homo sapiens, MCF7, 72 h, read-out: Cytotoxic activity, IC50, MCF-7 (breast cancer)
[8] = Homo sapiens, MCF7, read-out: Cytotoxic activity class, MCF-7 (breast cancer)
[9] = Homo sapiens, HeLa, 72 h, read-out: Cytotoxic activity, IC50, HeLa (cervical cancer)
[10] = Homo sapiens, HeLa, read-out: Cytotoxic activity class, HeLa (cervical cancer)
[11] = 72 h, read-out: Cytotoxic activity, IC50, KB (nasopharynx cancer)
[12] = read-out: Cytotoxic activity class, KB (nasopharynx cancer)

| Structure (SMILES) | IC50 (KB (nasopharynx cancer); [3]) | IC50 (MCF-7 (breast cancer); [4]) | IC50 (A549 (lung cancer); [5]) | IC50 (HeLa (cervical cancer); [6]) | IC50 (MCF-7 (breast cancer); [7]) | IC50 (MCF-7 (breast cancer); [8]) | SI, MCF-7 (MCF-7 (breast cancer)) | IC50 (HeLa (cervical cancer); [9]) | IC50 (HeLa (cervical cancer); [10]) | SI, HeLa (HeLa (cervical cancer)) | IC50 at 72 h [1] | IC50 (KB (nasopharynx cancer); [11]) | SI, KB (KB (nasopharynx cancer)) | IC50 (KB (nasopharynx cancer); [12]) | other results |
| --- | --- | --- | --- | --- | --- | --- | --- | --- | --- | --- | --- | --- | --- | --- | --- |
| O=c1nc2n(cc1F)[C@H]1C[C@@H](O2)[C@@H](CO)O1 [2,3′-anhydro-2′-deoxy-5-fluorouridine] | 4 to 30 µg/mL |  |  |  |  |  |  |  |  |  |  |  |  |  | Cytotoxic activity, IC50, MCF-7 (breast cancer) (MCF-7 (breast cancer); [2]): 3.7 µg/mL; IC50 (MCF-7 (breast cancer); 72 hours incubation, sulphorhodamine B, read-out: Cytotoxic activity, IC50, MCF-7 (breast cancer)): 16.2 µM; Cytotoxic activity class, MCF-7 (breast cancer) (MCF-7 (breast cancer); class A/MA/NA by IC50 in μg/mL): A (IC50<4 μg/mL are generally assumed as active); cytotoxic activity against the Huh-7 line, IC50 (Huh-7 line): > 200 µg/mL; Cytotoxic activity, IC50, HeLa (cervical cancer) (HeLa (cervical cancer); [2]): 11.0 µg/mL; IC50 (HeLa (cervical cancer); 72 hours incubation, sulphorhodamine B, read-out: Cytotoxic activity, IC50, HeLa (cervical cancer)): 48.2 µM; Cytotoxic activity class, HeLa (cervical cancer) (HeLa (cervical cancer); class A/MA/NA by IC50 in μg/mL): MA (IC50 range of 4-30 μg/mL are considered medium active); Cytotoxic activity, IC50, KB (nasopharynx cancer) (KB (nasopharynx cancer); [2]): 11.0 µg/mL; IC50 (KB (nasopharynx cancer); 72 hours incubation, sulphorhodamine B, read-out: Cytotoxic activity, IC50, KB (nasopharynx cancer)): 48.2 µM; antiviral activity against HBV (HBV): weak antiviral activity |
| O=c1[nH]c(=O)n([C@H]2C[C@H](O)[C@@H](CO)O2)cc1F [5-fluoro-2′-deoxyuridine, reference compound] | < 4 µg/mL | < 4 µg/mL | < 4 µg/mL | < 4 µg/mL |  |  |  |  |  |  |  |  |  |  |  |
| O=c1[nH]cc(F)c(=O)[nH]1 [5-fluorouracil, reference compound] | < 4 µg/mL | < 4 µg/mL | < 4 µg/mL | < 4 µg/mL |  |  |  |  |  |  |  |  |  |  |  |
| O=c1nc2n(cc1F)C1CC(O2)C(COP(=O)(NCC(F)(F)F)Oc2ccc(Cl)cc2)O1 (centres unmarked) [FEAdFU, 2,3′-anhydro-2′-deoxy-5-fluorouridine 5′-[N-(2,2,2-trifluoroethyl)-O-(4-chlorophenyl)]phosphate] |  |  |  |  | 240 nM and 0.12 µg/mL | < 4 µg/mL | 50 | 360 nM and 0.18 µg/mL | < 4 µg/mL | 33 and 33.3 | 6 µg/mL and 12 µM | 400 nM and 0.2 µg/mL | 30 | < 4 µg/mL | fold higher activity than 5FU, MCF-7 (MCF-7 (breast cancer); versus 5FU): more than 75 fold; fold higher activity than 5FdU, MCF-7 (MCF-7 (breast cancer); versus 5FdU): more than 47 fold; fold higher activity than AdFU, MCF-7 (MCF-7 (breast cancer); versus AdFU): 67 fold; IC50 (A549 (lung cancer); A549, 72 h, read-out: Cytotoxic activity, IC50, A549 (lung cancer)): 400 nM and 0.2 µg/mL; IC50 (A549 (lung cancer); A549, read-out: Cytotoxic activity class, A549 (lung cancer)): < 4 µg/mL; SI, A549 (A549 (lung cancer); SI = IC50 normal cell line (fibroblasts) / IC50 A549): 30; fold higher cytotoxicity than 5FU, A549 (A549 (lung cancer); versus 5FU): more than 53 fold; fold higher cytotoxicity than 5FdU, A549 (A549 (lung cancer); versus 5FdU): more than 33 fold; fold higher cytotoxicity than 5FU, HeLa (HeLa (cervical cancer); versus 5FU): more than 58 fold; fold higher cytotoxicity than 5FdU, HeLa (HeLa (cervical cancer); versus 5FdU): more than 36 fold; fold higher cytotoxicity than AdFU, HeLa (HeLa (cervical cancer); versus AdFU): more than 133 fold; fold higher cytotoxicity than 5FU, KB (KB (nasopharynx cancer); versus 5FU): more than 55 fold; fold higher cytotoxicity than 5FdU, KB (KB (nasopharynx cancer); versus 5FdU): more than 34 fold; fold higher cytotoxicity than AdFU, KB (KB (nasopharynx cancer); versus AdFU): 120 fold |
| O=c1nc2n(cc1F)C1CC(O2)C(COP(=O)(NCCF)Oc2ccc(Cl)cc2)O1 (centres unmarked) [MFEAdFU] |  |  |  |  | 11.8 µg/mL and 25.4 µM | 4 to 30 µg/mL | 3.7 | 16 µg/mL and 34.5 µM | 4 to 30 µg/mL | 2.7 | 43.1 µg/mL and 92.9 µM | 12.2 µg/mL and 26.3 µM | 3.5 | 4 to 30 µg/mL |  |
